Broadly, the IC50 is the midpoint of a concentration-inhibition curve.

Among the data in patent publication US20250353874A1, “GLUCOCORTICOID RECEPTOR AGONISTS” (Eli Lilly and Company, priority 2021, published 2025) are IC50 values, retold here.

The target in this experiment is hGR (GR-LBD) (Homo sapiens (Human), UniProt P04150). Description: hGR CoActivator Recruitment Assay (LanthaScreen TR-Fret GR Coactivator Assay). Format: biochemical. To be noted: top concentration 200 nM. As for the experimental part: hGR CoActivator Recruitment Assay
Chain of hGR (GR-LBD) (P04150 524-758): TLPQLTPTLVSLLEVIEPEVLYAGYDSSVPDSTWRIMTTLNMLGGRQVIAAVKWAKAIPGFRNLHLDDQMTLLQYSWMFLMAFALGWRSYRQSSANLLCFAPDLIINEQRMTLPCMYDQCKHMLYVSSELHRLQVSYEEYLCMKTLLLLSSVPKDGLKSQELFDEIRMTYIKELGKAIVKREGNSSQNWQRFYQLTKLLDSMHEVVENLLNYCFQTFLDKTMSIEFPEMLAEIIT
The activity of glucocorticoid compounds was measured using the LanthaScreen TR-Fret GR Coactivator Assay from Life Technologies (A15899). The compounds were acoustically transferred to an assay plate in a 3-fold 10-point serial dilution with a top concentration of 200 nM. Ten microliters of a 2× solution of GR-LBD was added to the compound plate and incubated for 10 min. Then ten microliters of a 2× solution of Fluoresein-SRC1-4 and Tb labelled anti-GST antibody were added to the plate. The plate was incubated in the dark for two hours and then read on an Envision plate reader, with excitation at 340 nm and emission at 520 nm (Fluorescein) and 490 nm (Terbium). The emission ratio of 520/490 was analyzed in Genedata. To obtain percent activity, the data was compared to a negative control of DMSO and positive control of 4 uM dexamethasone.
A general note: In TR-FRET formats the signal depends on donor and acceptor labels being close together.

Setting [1] is: 10-point dilution, positive control 4 uM dexamethasone, read-out: IC50.

Like-named read-outs stand apart in the source and are kept apart here.

For the molecule `COc1ccc(OCc2cccc(N)c2)c(F)c1[C@@H]1O[C@@H]2C[C@H]3[C@@H]4CCC5=CC(=O)C=C[C@]5(C)[C@H]4[C@@H](O)C[C@]3(C)[C@]2(C(=O)CO)O1` [Example 4, (6aR,6bS,7S,8aS,8bS,10R,11aR,12aS,12bS)-10-(3-((3-Aminobenzyl)oxy)-2-fluoro-6-methoxyphenyl)-7-hydroxy-8b-(2-hydroxyacetyl)-6a,8a-dimethyl-1,2,6a,6b,7,8,8a,8b,11a,12,12a,12b-dodecahydro-4H-naphtho[2′,1′:4,5]indeno[1,2-d][1,3]dioxol-4-one], the IC50 under setting [1] came to 2.47 nM.
On the same count and under the same terms, then `COc1ccc(OCc2cccc(N)c2)c(F)c1[C@H]1O[C@@H]2C[C@H]3[C@@H]4CCC5=CC(=O)C=C[C@]5(C)[C@H]4[C@@H](O)C[C@]3(C)[C@]2(C(=O)CO)O1` [Example 5, (6aR,6bS,7S,8aS,8bS,10S,11aR,12aS,12bS)-10-(3-((3-Aminobenzyl)oxy)-2-fluoro-6-methoxyphenyl)-7-hydroxy-8b-(2-hydroxyacetyl)-6a,8a-dimethyl-1,2,6a,6b,7,8,8a,8b,11a,12,12a,12b-dodecahydro-4H-naphtho[2′,1′:4,5]indeno[1,2-d][1,3]dioxol-4-one], with 1.4 nM.
Regarding `C[C@]12C=CC(=O)C=C1CC[C@@H]1[C@@H]2[C@@H](O)C[C@@]2(C)[C@H]1C[C@H]1O[C@H](c3c(Cl)cccc3OCc3cccc(N)c3)O[C@]12C(=O)CO` [Example 52, (6aR,6bS,7S,8aS,8bS,10S,11aR,12aS,12bS)-10-(2-((3-aminobenzyl)oxy)-6-chlorophenyl)-7-hydroxy-8b-(2-hydroxyacetyl)-6a,8a-dimethyl-1,2,6a,6b,7,8,8a,8b,11a,12,12a,12b-dodecahydro-4H-naphtho[2′,1′:4,5]indeno[1,2-d][1,3]dioxol-4-one], the IC50 (read-out: relative IC50) is > 200 nM.
As for `Cc1ccc(OCc2cccc(N)c2)c(F)c1[C@@H]1O[C@@H]2C[C@H]3[C@@H]4CCC5=CC(=O)C=C[C@]5(C)[C@H]4[C@@H](O)C[C@]3(C)[C@]2(C(=O)CO)O1` [Example 1, (6aR,6bS,7S,8aS,8bS,10R,11aR,12aS,12bS)-10-(3-((3-Aminobenzyl)oxy)-2-fluoro-6-methylphenyl)-7-hydroxy-8b-(2-hydroxyacetyl)-6a,8a-dimethyl-1,2,6a,6b,7,8,8a,8b,11a,12,12a,12b-dodecahydro-4H-naphtho[2′,1′:4,5]indeno[1,2-d][1,3]dioxol-4-one], under setting [1], the IC50 stood at 2.12 nM.
As for `Cc1ccc(OCc2ccccc2N)cc1[C@@H]1O[C@@H]2C[C@H]3[C@@H]4CCC5=CC(=O)C=C[C@]5(C)[C@H]4[C@@H](O)C[C@]3(C)[C@]2(C(=O)CO)O1` [Example 80, (6aR,6bS,7S,8aS,8bS,10R,11aR,12aS,12bS)-10-(5-((2-aminobenzyl)oxy)-2-methylphenyl)-7-hydroxy-8b-(2-hydroxyacetyl)-6a,8a-dimethyl-1,2,6a,6b,7,8,8a,8b,11a,12,12a,12b-dodecahydro-4H-naphtho[2′,1′:4,5]indeno[1,2-d][1,3]dioxol-4-one], under “read-out: relative IC50”, the IC50 was > 200 nM.
On the same count and under the same terms, the result for `C[C@]12C=CC(=O)C=C1CC[C@@H]1[C@@H]2[C@@H](O)C[C@@]2(C)[C@H]1C[C@H]1O[C@H](c3c(F)cccc3OCc3cccc(N)c3)O[C@]12C(=O)CO` [Example 45, (6aR,6bS,7S,8aS,8bS,10S,11aR,12aS,12bS)-10-(2-((3-aminobenzyl)oxy)-6-fluorophenyl)-7-hydroxy-8b-(2-hydroxyacetyl)-6a,8a-dimethyl-1,2,6a,6b,7,8,8a,8b,11a,12,12a,12b-dodecahydro-4H-naphtho[2′,1′:4,5]indeno[1,2-d][1,3]dioxol-4-one] reads > 200 nM.
For `Cc1ccc(OCc2cccc(N)c2)c(F)c1[C@H]1O[C@@H]2C[C@H]3[C@@H]4CCC5=CC(=O)C=C[C@]5(C)[C@H]4[C@@H](O)C[C@]3(C)[C@]2(C(=O)CO)O1` [Example 2, (6aR,6bS,7S,8aS,8bS,10S,11aR,12aS,12bS)-10-(3-((3-Aminobenzyl)oxy)-2-fluoro-6-methylphenyl)-7-hydroxy-8b-(2-hydroxyacetyl)-6a,8a-dimethyl-1,2,6a,6b,7,8,8a,8b,11a,12,12a,12b-dodecahydro-4H-naphtho[2′,1′:4,5]indeno[1,2-d][1,3]dioxol-4-one], the IC50 under setting [1] stood at 1.44 nM.
